Test results from US20100111859A1, “Visualization of Biological Material by the Use of Coated Contrast Agents” (priority 2007, published 2010).

Test: MRI measurements of relaxation rates and relaxivities
Type: physicochemical
Conditions: for r1: relaxivity, MRI measurement
From the text: MRI measurements: See Engström et al., Magn Reson Mater Phy, 19 (2006) 180-186.
Commercially available and clinically used Gd^3+-DPTA has under the same conditions lower values for 1/T1 and 1/T2 (e.g. 1/T1=0.005 ms^−1). Variations in relaxivities (r1 and r2) and in the relaxivity ratio (r2/r1) are illustrated by: […]

Compound | r1 | 1/T1 (1 mM) (relaxation rate at 1 mM Gd) | 1/T2 (relaxation rate, result in words)
[Cl][Gd]([Cl])[Cl] [Gd^3+ (GDCl3)] | 10.5 mM⁻¹ s⁻¹ |  | 
O=C([O-])CN(CCN(CC(=O)[O-])CC(=O)O)CCN(CC(=O)[O-])CC(=O)O.[Gd+3] [Gd^3+-DTPA] | 4.1 mM⁻¹ s⁻¹ | 0.005 ms^−1 | lower
